Values quoted from earlier work, collected in patent US12016851B2, “Modified release pharmaceutical formulations comprising deferiprone” (Chiesi Farmaceutici S.p.A., priority 2022, dated 2024).

Experiments:
[1] = monotherapy; Maggio 2002, Galanello 2006
[2] = in vivo

half-life [2]: 2 to 3 h
SMILES: Cc1c(O)c(=O)ccn1C [Deferiprone, 3-hydroxy-1,2-dimethylpyridin-4-one]
improving myocardial siderosis and cardiac function [1]: superior to deferoxamine monotherapy
